These results are taken from US5824665A, “Reduction of hair growth” (priority 1997, dated 1998).

For one experiment, the system named is flank organ hair growth. Put plainly: Golden Syrian hamster assay (flank organ hair mass after topical treatment). The class given is in vivo. The following applies: thirteen applications. The text has this: Male intact Golden Syrian hamsters are considered acceptable models for human beard hair growth in that they display oval shaped flank organs, one on each side, each about 8 mm in major diameter, which grow thick black and coarse hair similar to human beard hair. These organs produce hair in response to androgens in the hamster. To evaluate the effectiveness of a composition including a hair growth reducing compound, the flank organs of each of a group of hamsters are depilated by applying a thioglycolate based chemical depilatory (Surgex); alternatively, hair were removed by shaving the flank organs prior to topical treatments. To one organ of each animal 10 μl of vehicle alone once a day is applied, while to the other organ of each animal an equal amount of vehicle containing a hair growth reducing compound is applied. After thirteen applications (one application per day for five days a week), the flank organs are shaved and the amount of recovered hair (hair mass) from each is weighed. Percent-reduction of hair growth is calculated by subtracting the hair mass (mg) value of the test compound treated side from the hair mass value of the vehicle treated side; the delta value obtained is then divided by the hair mass value of the vehicle treated side, and the resultant number is multiplied by 100.
The above-described assay will be referred to herein as the "Golden Syrian hamster" assay. Preferred compositions provide an inhibition in hair growth of at least about 20%, more preferably at least about 40%, and most preferably at least about 60% when tested in the Golden Syrian hamster assay.

The subject of experiment [1] is hair follicle phosphofructokinase. The experiment is described as follows: Phosphofructokinase activity in hair follicle extracts. It is filed as biochemical, hamster. As for the experimental part: The activity of two target enzymes (phosphofructokinase and hexokinase) was determined in hair follicle extracts in the presence or absence of select enzyme inhibitors.
Measurement of Phosphofructokinase Activity in Hair Follicle Extracts
Hair follicles from hamster flank organs were excised and an enzyme extract was prepared in a buffered mixture containing 75 mM Tris-HCL, 3 mM MgCl2, and 15 mM (NH4)2 SO4, pH 7.5, using a sonication device. The follicle extracts were passed through a 10,000 molecular weight cut off filter by centrifugation at 12,000 x g. The unfiltered extract was transferred to another filter and a 100 ul aliquot of the magnesium buffer was added. The sample was centrifuged again under similar conditions. This procedure was repeated two additional times.
The washed extract was removed from the insert cup and assayed for phosphofructokinase activity according to the following procedure. The extract was mixed with a solution containing 2.0 ml of the magnesium buffer, 0.1 ml of fructose 6-phosphate (30 mM), 0.1 ml ATP (15 mM), 0.1 ml NADH (1.5 mM), 0.3 ml of mercatopethanol (0.1M), 0.3 ml an auxiliary enzyme mixture made up of aldose (10 units/ml), triosephosphate isomerase (8 units/ml), and α-glycerophosphate dehydrogenae (4 units/ml) in 25 mM Tris-HCI (pH 7.5). […] Change in absorbance at UV 340 nm was used to determine the enzyme activity.

A further experiment relates to hair follicle hexokinase. The experiment is described as follows: Hexokinase activity in hair follicle extracts. It is filed as biochemical, hamster. Particulars: concentration of 1 mM.
The mark [2] stands for this setting: 10% concentration in vehicle, topical 10 μl once a day, vehicle and pH per compound as in the Table.
The mark [3] stands for this setting: 10% concentration in vehicle, topical 10 μl once a day, vs vehicle treated side.
Where [4] appears, read: 15.0% concentration, vehicle G pH 7.0, topical.
[5] abbreviates: 4.4% concentration, vehicle A pH 7.0, topical.
Where [6] appears, read: 7.5% concentration, vehicle C pH 8.5, topical.

Procedure for hair follicle hexokinase: Measurement of the Hexokinase Activity was Performed as Follows
The enzyme hexokinase was extracted from the hamster hair follicles in a buffer containing Tris-HCL (0.25M, pH 8.1), 1.5 mM EDTA and 5.0 mM MgCl2. The extract was prepared in a manner similar to as described above for phosphofructokinase. The following reagents were mixed together and the change in absorbance at 340 nm was monitored to determine enzyme activity--0.5 ml of the Tris buffer, 0.1 ml ATP (5 mM), 0.1 ml phospho(enol)pyruvate and NADH (0.75 mM and 0.2 mM respectively), 0.1 ml of the follicle extract.

Regarding `O=C(O)C(=O)Cc1ccccc1` [Phenylpyruvic acid], in the experiment with flank organ hair growth (setting [2]), the “Hair Mass (mg) ± SEM, Treated” value is on record as 0.92 ± .21 mg. Further, the “% Inhibition (hair growth)” value in the experiment with flank organ hair growth (setting [3]) was 54 ± 10%.
The like results for `O=C(O)[C@H](O)COP(=O)(O)O` [D(-)3-Phosphoglyceric acid] were, in that order, 2.27 ± .22 mg and 21 ± 7%.
Regarding `O=CC[C@@H](O)[C@H](O)[C@H](O)CO` [2-Deoxyglucose], the “Hair Mass (mg) ± SEM, Treated” value in the experiment with flank organ hair growth (setting [2]) is 0.96 ± .16 mg. In the experiment on flank organ hair growth (setting [3]), the “% Inhibition (hair growth)” value is reported as 38 ± 7%.
`CCCCCCCCCCCCCCCCC(C(=O)O)C(O)(CC(=O)O)C(=O)O` (centres unmarked) [Argaric acid]: the “Hair Mass (mg) ± SEM, Treated” value in the experiment on flank organ hair growth (setting [2]) was 0.97 ± .14 mg. Moreover, the “% Inhibition (hair growth)” value in the experiment on flank organ hair growth (setting [3]) came to 52 ± 4%. The “inhibition of the hair follicle phosphofructokinase activity” value in experiment [1] (concentration of 0.15 mM) was determined as 76%.
As to `N[C@@H]1C(O)O[C@H](CO)[C@@H](O)[C@@H]1O` (some centres unmarked) [Mannosamine], the “Hair Mass (mg) ± SEM, Treated” value in the experiment with flank organ hair growth (setting [2]) was 0.71 ± .13 mg. For the same compound, the “% Inhibition (hair growth)” value in the experiment on flank organ hair growth (setting [3]) is recorded as 68 ± 6%. In the experiment with hair follicle hexokinase, the “inhibition of the hair follicle hexokinase activity” value was 100%.
As for `O=C(O)COP(=O)(O)O` [Phosphogylcolic acid], the “Hair Mass (mg) ± SEM, Treated” value in the experiment with flank organ hair growth (setting [2]) was 0.57 ± .09 mg. Besides, the “% Inhibition (hair growth)” value with flank organ hair growth (setting [3]) is recorded as 66 ± 5%. Also, in experiment [1] (concentration of 0.9 mM), the “inhibition of the hair follicle phosphofructokinase activity” value is recorded as 45%.
Regarding `O=C[C@H](O)[C@@H](O)[C@H](O)[C@H](S)CO` [5-Thio-D-glucose], in the experiment with flank organ hair growth (setting [2]), the “Hair Mass (mg) ± SEM, Treated” value is 1.32 ± .20 mg. Also, in the experiment with flank organ hair growth (setting [3]), the “% Inhibition (hair growth)” value is 49 ± 6%.
For `O=C(O)C(=O)CBr` [Bromopyruvic acid], in the experiment on flank organ hair growth (setting [2]), the “Hair Mass (mg) ± SEM, Treated” value is 1.10 ± .11 mg. Besides, the “% Inhibition (hair growth)” value in the experiment on flank organ hair growth (setting [3]) is recorded as 58 ± 6%.
Take `O=C(O)c1ccc2ccccc2n1` [Quinaldic Acid]: in the experiment on flank organ hair growth (setting [2]), the “Hair Mass (mg) ± SEM, Treated” value is 0.62 ± .08 mg. Besides, the “% Inhibition (hair growth)” value with flank organ hair growth (setting [3]) turned out to be 69 ± 4%.
`O=C(O)c1cc(=O)c2ccccc2[nH]1` [Kynurenic acid]: the “Hair Mass (mg) ± SEM, Treated” value in the experiment with flank organ hair growth (setting [2]) is on record as 0.98 ± .09 mg. Further, in the experiment on flank organ hair growth (setting [3]), the “% Inhibition (hair growth)” value came out at 64 ± 4%.
`CC(=O)N[C@H]1[C@@H](O)[C@H](O)[C@@H](CO)O[C@H]1O` [N-Acetyl-β-D-mannosamine]: in the experiment on flank organ hair growth (setting [2]), the “Hair Mass (mg) ± SEM, Treated” value is on record as 0.79 ± .15 mg. For the same compound, the “% Inhibition (hair growth)” value in the experiment with flank organ hair growth (setting [3]) is recorded as 65 ± 7%. Also, the “inhibition of the hair follicle hexokinase activity” value in the experiment on hair follicle hexokinase is 100%.
For the compound `N#CC(=Cc1ccc(O)cc1)C(=O)O` [α-Cyano-4-hydroxycinnamic acid], the “Hair Mass (mg) ± SEM, Treated” value with flank organ hair growth (setting [2]) is reported as 0.87 ± .34 mg. The “% Inhibition (hair growth)” value in the experiment on flank organ hair growth (setting [3]) came out at 49 ± 17%.
Regarding `O=C(CCc1ccc(O)cc1)c1c(O)cc(O)cc1O` [Phloretin], in the experiment with flank organ hair growth (setting [4]), the “% Inhibition (hair growth)” value stood at 35 ± 7% and the “Hair Mass (mg) ± SEM, Treated” value is 1.34 ± .11 mg.
Take `Cc1ccc(S(=O)(=O)N[C@@H](CCCCN)C(=O)CCl)cc1` [N-α-(p-Tosyl)-L-lysine chloromethyl ketone]: the “Hair Mass (mg) ± SEM, Treated” value in the experiment with flank organ hair growth (setting [2]) is on record as 0.48 ± .11 mg. Moreover, in the experiment on flank organ hair growth (setting [3]), the “% Inhibition (hair growth)” value is on record as 81 ± 4%. For the same compound, in the experiment on hair follicle hexokinase, the “inhibition of the hair follicle hexokinase activity” value is listed as 100%.
`Nc1ncnc2c1ncn2[C@@H]1O[C@H](COC(=O)c2ccc(S(=O)(=O)F)cc2)[C@@H](O)[C@H]1O` [5'-p-Flurosuflonylbenzoyl adenosine]: in the experiment on flank organ hair growth (setting [5]), the “% Inhibition (hair growth)” value is 60 ± 3% and the “Hair Mass (mg) ± SEM, Treated” value was 0.74 ± .05 mg.
For the compound 6-Amino-6-deoxy glucose, the “Hair Mass (mg) ± SEM, Treated” value with flank organ hair growth (setting [2]) is given as 0.77 ± .15 mg. In addition, in the experiment with flank organ hair growth (setting [3]), the “% Inhibition (hair growth)” value is 59 ± 6%. Besides, the “inhibition of the hair follicle hexokinase activity” value with hair follicle hexokinase was determined as 46%.
As for `O=C(O)c1cc(O)c2cccc(O)c2n1` [Xanthurenic acid], in the experiment on flank organ hair growth (setting [6]), the “% Inhibition (hair growth)” value stood at 59 ± 4% and the “Hair Mass (mg) ± SEM, Treated” value is listed as 1.26 ± .13 mg.
Consider `O=C(O)C(=O)CF` [3-Fluoropyruvic acid], for which the “Hair Mass (mg) ± SEM, Treated” value with flank organ hair growth (setting [2]) is reported as 1.14 ± .09 mg. Also, in the experiment with flank organ hair growth (setting [3]), the “% Inhibition (hair growth)” value stood at 40 ± 5%.
As for `O=C(O)C1(O)CC1` [1-Hydroxy-1-cyclopropanecarboxylic acid], the “Hair Mass (mg) ± SEM, Treated” value in the experiment on flank organ hair growth (setting [2]) is listed as 1.80 ± .20 mg. Besides, in the experiment with flank organ hair growth (setting [3]), the “% Inhibition (hair growth)” value is listed as 22 ± 9%.
